Test results published in patent US20230406840A1, “N-(2-(3-CYANO-2-AZABICYCLO[3.1.0]HEXAN-2-YL)-2-OXOETHYL)QUINOLINE-4-CARBOXAMIDES” (AstraZeneca AB, priority 2022, published 2023).
Values after ≈ are worked out from the molar mass of the structure shown.

What was measured:
hFAP = hFAP (Homo sapiens (Human), UniProt Q12884);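 note: fluorescence read after incubating enzyme with substrate at room temperature, IC50 fitted from percent inhibition against log concentration with a one-site model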
Method: Compounds were tested in a biochemical inhibition assay using hFAP enzyme at 0.24 nM FAC (Proteros, 38-760 (PR-0071)) and the substrate Ala-Pro-AMC (ARI-3144) at 20 μM FAC. 384 low volume black plates (Greiner #784076) were used. 4 μL, 0.48 nM enzyme solution (100 mM Tris HCl, 100 mM NaCl, 0.05% Chaps, pH 7.4) was added to 40 nL compounds (in DMSO) at 10 CR, 3-fold dilution series from 50 μM FAC. Plates were incubated for 15 min at rt in dark. 4 μL, 40 μM substrate solution (100 mM Tris HCl, 100 mM NaCl, 0.05% Chaps, pH 7.4) was added to each well. Plates were centrifuged at 1000 rpm and incubated for 30 min at rt in dark. The plates were read on a PHERAstar® reader with excitation 340 nm and emission 460 nm. Data were analyzed in Genedata Screener®. IC50 values were determined by plotting % inhibition versus log compound concentration and using a one site dose response model.

[1] = Metabolic stability in human liver microsomes (HLM); assay type: in vitro ADME
Method: Metabolic stability in HLM was measured as described in J Comput Aided Mol Des 2015, 29, 795.

Rat Hepatocytes (rHep) = assay: Metabolic stability in rat hepatocytes (rHep); assay type: in vitro ADME
Method: Metabolic stability in rat hepatocytes was measured as described in J Comput Aided Mol Des 2015, 29, 795.

[2] = molecular target: human Fibroblast activation protein alpha (hFAP) (Homo sapiens (Human), UniProt Q12884); assay: hFAP inhibition assay (tight binders); assay type: biochemical; details: tight-binder format, Ala-Pro-AMC 20 μM, 2.5 h incubation; n = 1 or geometric mean (n = 5-10)
Sequence of human Fibroblast activation protein alpha (hFAP) (Q12884 38-760): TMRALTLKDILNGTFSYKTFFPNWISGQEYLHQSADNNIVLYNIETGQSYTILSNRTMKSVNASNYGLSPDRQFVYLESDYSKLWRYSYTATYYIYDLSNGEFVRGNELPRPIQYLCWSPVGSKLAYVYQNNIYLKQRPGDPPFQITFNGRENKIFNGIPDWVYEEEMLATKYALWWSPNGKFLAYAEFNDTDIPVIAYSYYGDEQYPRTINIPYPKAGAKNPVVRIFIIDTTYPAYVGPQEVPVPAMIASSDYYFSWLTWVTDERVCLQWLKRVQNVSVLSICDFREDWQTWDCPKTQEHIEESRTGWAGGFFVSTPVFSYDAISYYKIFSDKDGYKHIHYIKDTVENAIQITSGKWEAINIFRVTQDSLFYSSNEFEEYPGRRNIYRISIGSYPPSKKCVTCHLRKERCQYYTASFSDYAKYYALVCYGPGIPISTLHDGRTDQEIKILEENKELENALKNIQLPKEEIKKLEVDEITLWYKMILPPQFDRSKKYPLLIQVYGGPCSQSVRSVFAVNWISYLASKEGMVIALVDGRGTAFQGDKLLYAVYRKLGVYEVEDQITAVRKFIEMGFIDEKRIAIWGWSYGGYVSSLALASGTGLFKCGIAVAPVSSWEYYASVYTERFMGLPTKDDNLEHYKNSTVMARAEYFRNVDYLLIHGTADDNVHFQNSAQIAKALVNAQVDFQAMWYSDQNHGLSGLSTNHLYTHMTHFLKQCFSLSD
Method: Data were analyzed in Genedata Screener®.

Human Hepatocytes (hHep) = assay: Metabolic stability in human hepatocytes (hHep); assay type: in vitro ADME
Method: Metabolic stability in human hepatocytes was measured as described in Xenobiotica 2010, 40, 637.

[3] = molecular target: Prolyl Oligopeptidase (hPREP) (Homo sapiens (Human), UniProt P48147); assay: hPREP inhibition assay; assay type: biochemical; details: hPREP 0.6 nM, Z-Gly-Pro-amino-methylcoumarin 50 μM; read-out: PREP IC50
Sequence of Prolyl Oligopeptidase (hPREP) (P48147 whole entry): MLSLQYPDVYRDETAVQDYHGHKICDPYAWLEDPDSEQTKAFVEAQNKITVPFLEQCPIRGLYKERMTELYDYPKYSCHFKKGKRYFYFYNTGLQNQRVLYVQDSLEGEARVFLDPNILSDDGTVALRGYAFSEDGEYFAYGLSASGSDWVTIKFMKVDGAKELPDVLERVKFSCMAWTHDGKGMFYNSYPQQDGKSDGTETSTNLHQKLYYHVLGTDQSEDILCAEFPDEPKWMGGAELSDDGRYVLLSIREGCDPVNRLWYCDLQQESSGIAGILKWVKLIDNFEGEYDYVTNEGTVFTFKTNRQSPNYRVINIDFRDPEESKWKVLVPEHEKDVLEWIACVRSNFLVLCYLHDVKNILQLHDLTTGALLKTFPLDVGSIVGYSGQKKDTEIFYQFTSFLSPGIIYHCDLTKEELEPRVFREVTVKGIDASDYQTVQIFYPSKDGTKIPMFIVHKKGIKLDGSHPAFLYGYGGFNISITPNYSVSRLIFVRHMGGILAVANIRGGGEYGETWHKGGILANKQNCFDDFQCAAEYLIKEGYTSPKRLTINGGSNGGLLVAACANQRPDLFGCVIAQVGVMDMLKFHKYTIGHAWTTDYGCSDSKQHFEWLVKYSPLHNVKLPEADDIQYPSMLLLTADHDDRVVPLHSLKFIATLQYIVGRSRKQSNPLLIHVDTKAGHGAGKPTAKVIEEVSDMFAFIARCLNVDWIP
Method: Compounds were tested in a biochemical inhibition assay using Prolyl endopeptidase, Prolyl Oligopeptidase (hPREP) enzyme at 0.6 nM FAC (R&D Systems, 4308-SE) and the substrate Z-Gly-Pro-amino-methylcoumarin (Bachem, I-1145) at 50 μM FAC. 384 Low volume black plates (Greiner #784076) were used. […] 4 μL, 100 μM substrate solution (25 mM Tris HCl, 250 mM NaCl, 0.01% Triton X-100, 5 mM Glutathione, pH 7.5) was added to each well. Plates were centrifuged at 1000 rpm and incubated for 20 min at rt in dark. […] Data were analyzed in Genedata Screener®.

Kinetic solubility = assay type: physicochemical; details: kinetic from dmso stock
Method: Kinetic solubility was measured as described in Comput Aided Mol Des 2015, 29, 795.

hFAP (M39-A757) = hFAP (M39-A757) (Homo sapiens (Human), UniProt Q12884)
Sequence of hFAP (M39-A757) (Q12884 39-757): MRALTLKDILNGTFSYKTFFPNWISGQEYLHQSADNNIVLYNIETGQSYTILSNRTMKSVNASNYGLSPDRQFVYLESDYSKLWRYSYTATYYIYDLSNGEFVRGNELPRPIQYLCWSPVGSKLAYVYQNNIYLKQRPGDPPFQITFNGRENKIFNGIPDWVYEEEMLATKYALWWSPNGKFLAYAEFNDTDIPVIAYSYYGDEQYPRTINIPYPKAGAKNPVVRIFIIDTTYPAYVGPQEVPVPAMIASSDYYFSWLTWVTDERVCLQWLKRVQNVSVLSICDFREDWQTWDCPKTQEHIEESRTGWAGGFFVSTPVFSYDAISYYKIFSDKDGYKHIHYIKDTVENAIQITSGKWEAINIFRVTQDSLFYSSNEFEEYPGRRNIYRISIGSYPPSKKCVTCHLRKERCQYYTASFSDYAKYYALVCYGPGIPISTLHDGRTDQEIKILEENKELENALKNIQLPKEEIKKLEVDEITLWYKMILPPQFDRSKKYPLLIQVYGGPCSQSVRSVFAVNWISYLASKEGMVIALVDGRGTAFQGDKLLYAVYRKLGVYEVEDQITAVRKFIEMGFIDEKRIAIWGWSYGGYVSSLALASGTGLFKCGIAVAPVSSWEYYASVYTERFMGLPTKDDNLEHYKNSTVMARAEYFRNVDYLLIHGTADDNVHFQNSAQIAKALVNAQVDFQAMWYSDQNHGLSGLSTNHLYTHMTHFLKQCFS
Method: Compounds were tested in a direct binding assay using 8K surface plasmon resonance biosensor (GE Healthcare) at 20° C. Immobilization of hFAP (M39-A757) on a CMD200M sensor chip (Xantec) was performed using standard amine coupling procedure in immobilization buffer (10 mM HEPES, 150 mM NaCl, 0.05% Tween20, pH 7.4). The surface was washed with 10 mM NaOH, 1M NaCl before being activated with EDC/NHS (GE Healthcare), followed by immobilization of hFAP (in 10 mM Acetate pH 5.0). Finally, the surface was deactivated by ethanolamine. Immobilization levels of hFAP were around 4000-6000 RU. The reference spot was treated as described, omitting the injection of hFAP. Compound concentration series were injected over the immobilized protein in increasing concentrations (2-500 nM) using single cycle kinetics in running buffer (20 mM TRIS, 150 mM NaCl, 0.05% Tween20, 1% DMSO, pH 7.4). Interaction models were fitted globally to the experimental traces, enabling determination of kon, koff and Kd.

Sequence of hFAP (Q12884 38-760): as the sequence (Q12884 38-760) above

Compound: Cc1cc(C(=O)NCC(=O)N2[C@H](C#N)C[C@@H]3C[C@@H]32)c2ccc(F)cc2n1 [Example 8, N-(2-((1S,3S,5S)-3-Cyano-2-azabicyclo[3.1.0]hexan-2-yl)-2-oxoethyl)-7-fluoro-2-methylquinoline-4-carboxamide]
- IC50 (hFAP): 71 nM
- microsomal CLint [1]: < 3 µL/min/mg
- rHeps CLint (Rat Hepatocytes (rHep)): 1.3 μL/min/1E6
- IC50 [2]: 20 nM
- hHep CLint (Human Hepatocytes (hHep)): <1 μL/min/1E6
- IC50 [3]: 44000 nM
- solubility (Kinetic solubility): 890 µM (≈ 314 µg/mL)

Compound: N#C[C@@H]1C[C@@H]2C[C@@H]2N1C(=O)CNC(=O)c1ccnc2ccc(CF)cc12 [Example 11, N-(2-((1S,3S,5S)-3-Cyano-2-azabicyclo[3.1.0]hexan-2-yl)-2-oxoethyl)-6-(fluoromethyl)quinoline-4-carboxamide]
- IC50 (hFAP): 2.2 nM
- microsomal CLint [1]: < 3 µL/min/mg
- rHeps CLint (Rat Hepatocytes (rHep)): 5.3 μL/min/1E6
- IC50 [2]: 0.4 nM
- Kd (hFAP (M39-A757)): 17 nM
- IC50 [3]: > 50000 nM
- solubility (Kinetic solubility): 970 µM (≈ 342 µg/mL)

Compound: CC(C)(F)c1ccc2nccc(C(=O)NCC(=O)N3[C@H](C#N)C[C@@H]4C[C@@H]43)c2c1 [Example 12, N-(2-((1S,3S,5S)-3-Cyano-2-azabicyclo[3.1.0]hexan-2-yl)-2-oxoethyl)-6-(2-fluoropropan-2-yl)quinoline-4-carboxamide]
- IC50 (hFAP): 3.8 nM
- microsomal CLint [1]: 100 µL/min/mg
- rHeps CLint (Rat Hepatocytes (rHep)): 20 μL/min/1E6
- IC50 [2]: 0.75 nM
- Kd (hFAP (M39-A757)): 13 nM
- IC50 [3]: > 50000 nM
- solubility (Kinetic solubility): 300 µM (≈ 114 µg/mL)

Compound: CC(C)(O)c1ccc2nccc(C(=O)NCC(=O)N3[C@H](C#N)C[C@@H]4C[C@@H]43)c2c1 [Example 13, N-(2-((1S,3S,5S)-3-Cyano-2-azabicyclo[3.1.0]hexan-2-yl)-2-oxoethyl)-6-(2-hydroxypropan-2-yl)quinoline-4-carboxamide]
- IC50 (hFAP): 3.8 nM
- microsomal CLint [1]: < 3 µL/min/mg
- rHeps CLint (Rat Hepatocytes (rHep)): 2 μL/min/1E6
- IC50 [2]: 0.86 nM
- hHep CLint (Human Hepatocytes (hHep)): <1 μL/min/1E6
- IC50 [3]: > 50000 nM
- solubility (Kinetic solubility): > 1000 µM

Compound: COC(C)c1ccc2nccc(C(=O)NCC(=O)N3[C@H](C#N)C[C@@H]4C[C@@H]43)c2c1 (stereo partly drawn) [Example 15, N-(2-((1S,3S,5S)-3-Cyano-2-azabicyclo[3.1.0]hexan-2-yl)-2-oxoethyl)-6-(1-methoxyethyl)quinoline-4-carboxamide]
- IC50 (hFAP): 16 nM
- microsomal CLint [1]: 30 µL/min/mg
- rHeps CLint (Rat Hepatocytes (rHep)): 9.4 μL/min/1E6
- IC50 [2]: 1.1 nM
- hHep CLint (Human Hepatocytes (hHep)): 3.3 μL/min/1E6
- IC50 [3]: > 50000 nM
- solubility (Kinetic solubility): > 1000 µM

Compound: COC(C)(C)c1ccc2nccc(C(=O)NCC(=O)N3[C@H](C#N)C[C@@H]4C[C@@H]43)c2c1 [Example 16, N-(2-((1S,3S,5S)-3-Cyano-2-azabicyclo[3.1.0]hexan-2-yl)-2-oxoethyl)-6-(2-methoxypropan-2-yl)quinoline-4-carboxamide]
- IC50 (hFAP): 4.2 nM
- microsomal CLint [1]: 72 µL/min/mg
- rHeps CLint (Rat Hepatocytes (rHep)): 21 μL/min/1E6
- IC50 [2]: 0.81 nM
- Kd (hFAP (M39-A757)): 20 nM
- IC50 [3]: > 50000 nM
- solubility (Kinetic solubility): > 1000 µM

Compound: N#C[C@@H]1C[C@@H]2C[C@@H]2N1C(=O)CNC(=O)c1ccnc2ccc(COC(F)(F)F)cc12 [Example 17, N-(2-((1S,3S,5S)-3-Cyano-2-azabicyclo[3.1.0]hexan-2-yl)-2-oxoethyl)-6-((trifluoromethoxy)methyl)quinoline-4-carboxamide]
- IC50 (hFAP): 1.7 nM
- microsomal CLint [1]: 110 µL/min/mg
- rHeps CLint (Rat Hepatocytes (rHep)): 21 μL/min/1E6
- IC50 [2]: 0.38 nM
- Kd (hFAP (M39-A757)): 8.5 nM
- IC50 [3]: > 50000 nM
- solubility (Kinetic solubility): 340 µM (≈ 142 µg/mL)

Compound: CC(C)(F)c1ccc2c(C(=O)NCC(=O)N3[C@H](C#N)C[C@@H]4C[C@@H]43)ccnc2c1 [Example 21, N-(2-((1S,3S,5S)-3-Cyano-2-azabicyclo[3.1.0]hexan-2-yl)-2-oxoethyl)-7-(2-fluoropropan-2-yl)quinoline-4-carboxamide]
- IC50 (hFAP): 2.8 nM
- microsomal CLint [1]: 13 µL/min/mg
- rHeps CLint (Rat Hepatocytes (rHep)): 70 μL/min/1E6
- IC50 [2]: 0.97 nM
- Kd (hFAP (M39-A757)): 10 nM
- IC50 [3]: > 50000 nM
- solubility (Kinetic solubility): 56 µM (≈ 21.3 µg/mL)

Compound: N#C[C@@H]1C[C@@H]2C[C@@H]2N1C(=O)CNC(=O)c1ccnc2cc(C(F)F)ccc12 [Example 22, N-(2-((1S,3S,5S)-3-Cyano-2-azabicyclo[3.1.0]hexan-2-yl)-2-oxoethyl)-7-(difluoromethyl)quinoline-4-carboxamide]
- IC50 (hFAP): 1.5 nM
- microsomal CLint [1]: < 5.8 µL/min/mg
- rHeps CLint (Rat Hepatocytes (rHep)): 2.9 μL/min/1E6
- IC50 [2]: 0.51 nM
- hHep CLint (Human Hepatocytes (hHep)): <1 μL/min/1E6
- IC50 [3]: > 50000 nM
- solubility (Kinetic solubility): > 1000 µM

Compound: N#C[C@@H]1C[C@@H]2C[C@@H]2N1C(=O)CNC(=O)c1ccnc2cc(CF)ccc12 [Example 24, N-(2-((1S,3S,5S)-3-Cyano-2-azabicyclo[3.1.0]hexan-2-yl)-2-oxoethyl)-7-(fluoromethyl)quinoline-4-carboxamide]
- IC50 (hFAP): 1.2 nM
- microsomal CLint [1]: < 3 µL/min/mg
- rHeps CLint (Rat Hepatocytes (rHep)): 2.7 μL/min/1E6
- IC50 [2]: 0.3 nM
- Kd (hFAP (M39-A757)): 8.2 nM
- IC50 [3]: > 45000 nM
- solubility (Kinetic solubility): > 1000 µM

Compound: COC(C)c1ccc2c(C(=O)NCC(=O)N3[C@H](C#N)C[C@@H]4C[C@@H]43)ccnc2c1 (stereo partly drawn) [Example 27, N-(2-((1S,3S,5S)-3-Cyano-2-azabicyclo[3.1.0]hexan-2-yl)-2-oxoethyl)-7-(1-methoxyethyl)quinoline-4-carboxamide]
- IC50 (hFAP): 6 nM
- microsomal CLint [1]: 21 µL/min/mg
- rHeps CLint (Rat Hepatocytes (rHep)): 7.2 μL/min/1E6
- IC50 [2]: 2 nM
- hHep CLint (Human Hepatocytes (hHep)): 3.1 μL/min/1E6
- IC50 [3]: > 50000 nM
- solubility (Kinetic solubility): > 1000 µM

Compound: COC(C)(C)c1ccc2c(C(=O)NCC(=O)N3[C@H](C#N)C[C@@H]4C[C@@H]43)ccnc2c1 [Example 28, N-(2-((1S,3S,5S)-3-Cyano-2-azabicyclo[3.1.0]hexan-2-yl)-2-oxoethyl)-7-(2-methoxypropan-2-yl)quinoline-4-carboxamide]
- IC50 (hFAP): 4.6 nM
- microsomal CLint [1]: 36 µL/min/mg
- rHeps CLint (Rat Hepatocytes (rHep)): 5.2 μL/min/1E6
- IC50 [2]: 1.3 nM
- Kd (hFAP (M39-A757)): 7.8 nM
- IC50 [3]: > 50000 nM
- solubility (Kinetic solubility): > 1000 µM

Compound: N#C[C@@H]1C[C@@H]2C[C@@H]2N1C(=O)CNC(=O)c1ccnc2cc(COC(F)(F)F)ccc12 [Example 29, N-(2-((1S,3S,5S)-3-Cyano-2-azabicyclo[3.1.0]hexan-2-yl)-2-oxoethyl)-7-((trifluoromethoxy)methyl)quinoline-4-carboxamide]
- IC50 (hFAP): 1.3 nM
- microsomal CLint [1]: 8.9 µL/min/mg
- rHeps CLint (Rat Hepatocytes (rHep)): 81 μL/min/1E6
- IC50 [2]: 0.3 nM
- Kd (hFAP (M39-A757)): 11 nM
- IC50 [3]: > 50000 nM
- solubility (Kinetic solubility): 23 µM (≈ 9.62 µg/mL)

Compound: CC(C)Oc1ccc2nccc(C(=O)NCC(=O)N3[C@H](C#N)C[C@@H]4C[C@@H]43)c2c1 [Example 34, N-(2-((1S,3S,5S)-3-Cyano-2-azabicyclo[3.1.0]hexan-2-yl)-2-oxoethyl)-6-isopropoxyquinoline-4-carboxamide]
- IC50 (hFAP): 4.1 nM
- microsomal CLint [1]: 160 µL/min/mg
- rHeps CLint (Rat Hepatocytes (rHep)): 20 μL/min/1E6
- IC50 [2]: 1.2 nM
- hHep CLint (Human Hepatocytes (hHep)): 15 μL/min/1E6
- IC50 [3]: > 50000 nM
- solubility (Kinetic solubility): 850 µM (≈ 322 µg/mL)

Compound: N#C[C@@H]1C[C@@H]2C[C@@H]2N1C(=O)CNC(=O)c1ccnc2ccc(OCC3CC3)cc12 [Example 35, N-(2-((1S,3S,5S)-3-Cyano-2-azabicyclo[3.1.0]hexan-2-yl)-2-oxoethyl)-6-(cyclopropylmethoxy)quinoline-4-carboxamide]
- IC50 (hFAP): 0.64 nM
- microsomal CLint [1]: 90 µL/min/mg
- rHeps CLint (Rat Hepatocytes (rHep)): 16 μL/min/1E6
- IC50 [2]: 0.097 nM
- hHep CLint (Human Hepatocytes (hHep)): 12 μL/min/1E6
- IC50 [3]: > 50000 nM
- solubility (Kinetic solubility): 590 µM (≈ 230 µg/mL)

Compound: N#C[C@@H]1C[C@@H]2C[C@@H]2N1C(=O)CNC(=O)c1ccnc2cc(C3(C(F)(F)F)CC3)ccc12 [Example 36, N-(2-((1S,3S,5S)-3-Cyano-2-azabicyclo[3.1.0]hexan-2-yl)-2-oxoethyl)-7-(1-(trifluoromethyl)cyclopropyl)quinoline-4-carboxamide]
- IC50 (hFAP): 3.4 nM
- microsomal CLint [1]: 180 µL/min/mg
- rHeps CLint (Rat Hepatocytes (rHep)): 92 μL/min/1E6
- IC50 [2]: 0.58 nM
- Kd (hFAP (M39-A757)): 4.3 nM
- IC50 [3]: > 50000 nM
- solubility (Kinetic solubility): 210 µM (≈ 90 µg/mL)

Compound: CC1(c2ccc3nccc(C(=O)NCC(=O)N4[C@H](C#N)C[C@@H]5C[C@@H]54)c3c2)CC1 [Example 43, N-(2-((1S,3S,5S)-3-Cyano-2-azabicyclo[3.1.0]hexan-2-yl)-2-oxoethyl)-6-(1-methylcyclopropyl)quinoline-4-carboxamide]
- IC50 (hFAP): 2.9 nM
- microsomal CLint [1]: 260 µL/min/mg
- rHeps CLint (Rat Hepatocytes (rHep)): 67 μL/min/1E6
- IC50 [2]: 0.56 nM
- Kd (hFAP (M39-A757)): 11 nM
- IC50 [3]: > 50000 nM
- solubility (Kinetic solubility): 820 µM (≈ 307 µg/mL)
